{
  "source": "paper PMC8112869",
  "about": "“Therapeutic inhibition of keratinocyte TRPV3 sensory channel by local anesthetic dyclonine” (eLife, 2021)",
  "key": {"[1]": {"target": "T1, TRPV3 L630W (Mus musculus, UniProt Q8K424, L630W)", "T1 construct": "expressed in transfected cells; host or cells: HEK 293T", "T1 sequence (Q8K424 whole entry L630W)": "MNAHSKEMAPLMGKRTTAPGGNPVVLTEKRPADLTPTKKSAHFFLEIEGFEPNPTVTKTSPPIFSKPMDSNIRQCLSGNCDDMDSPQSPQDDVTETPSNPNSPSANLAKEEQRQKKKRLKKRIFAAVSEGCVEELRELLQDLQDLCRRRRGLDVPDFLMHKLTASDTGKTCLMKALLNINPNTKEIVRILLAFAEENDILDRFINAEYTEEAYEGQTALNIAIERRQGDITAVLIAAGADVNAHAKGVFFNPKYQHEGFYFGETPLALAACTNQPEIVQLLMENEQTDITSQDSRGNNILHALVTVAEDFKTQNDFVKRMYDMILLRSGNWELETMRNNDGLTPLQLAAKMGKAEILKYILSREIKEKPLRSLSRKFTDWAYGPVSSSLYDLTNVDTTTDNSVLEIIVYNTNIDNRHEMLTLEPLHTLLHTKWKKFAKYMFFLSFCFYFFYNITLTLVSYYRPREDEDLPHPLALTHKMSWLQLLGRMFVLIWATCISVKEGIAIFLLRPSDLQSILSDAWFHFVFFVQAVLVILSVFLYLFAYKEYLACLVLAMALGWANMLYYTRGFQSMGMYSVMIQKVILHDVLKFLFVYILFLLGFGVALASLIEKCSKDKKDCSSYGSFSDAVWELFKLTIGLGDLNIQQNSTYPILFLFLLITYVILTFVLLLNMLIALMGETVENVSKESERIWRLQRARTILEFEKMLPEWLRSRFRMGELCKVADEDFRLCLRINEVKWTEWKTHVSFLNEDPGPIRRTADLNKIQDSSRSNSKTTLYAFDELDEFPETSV", "experiment": "Whole-cell recording of TRPV3 mutant L630W in HEK 293T cells", "assay_type": "cell-based", "conditions": "2-APB (1 mM)-evoked, –60 mV, read-out: IC50 for inhibition of TRPV3 mutant", "excerpt": "(§1) The WT mouse TRPV3 (mTRPV3), human TRPV3 (hTRPV3), rat TRPV1, rat TRPV2, rat TRPM8, and mouse TRPA1 cDNAs were generously provided by Dr. Feng Qin (State University of New York at Buffalo, Buffalo, USA). The GFP-mTRPV3 WT and the mutants (mTRPV3-G573S and mTRPV3-G573C) in pcDNA4/TO vector were gifts from Dr. Michael X Zhu (The University of Texas Health Science Center at Houston, Houston, USA). The WT fTRPV3 was kindly provided by Dr. Makoto Tominaga (Department of Physiological Sciences, SOKENDAI, Okazaki, Japan). All mutations were made using the overlap-extension polymerase chain reaction method as previously described ([Tian et al., 2019]). The resulting mutations were then verified by DNA sequencing. […]\n(§2) Conventional whole-cell and excised patch-clamp recording methods were used. […] For a subset of recordings, currents were amplified using an Axopatch 200B amplifier (Molecular Devices, Sunnyvale, CA) and recorded through a BNC-2090/MIO acquisition system (National Instruments, Austin, TX) using QStudio developed by Dr. Feng Qin at State University of New York at Buffalo. […] As determined by the conductance tests, the solution around a patch under study was fully controlled by the application of a flow rate of 100 μl/min or greater. […]"}, "[2]": {"target": "T2, TRPA1 (Mus musculus, UniProt Q8BLA8)", "T2 construct": "expressed in transfected cells; host or cells: HEK 293T", "T2 sequence (Q8BLA8 whole entry)": "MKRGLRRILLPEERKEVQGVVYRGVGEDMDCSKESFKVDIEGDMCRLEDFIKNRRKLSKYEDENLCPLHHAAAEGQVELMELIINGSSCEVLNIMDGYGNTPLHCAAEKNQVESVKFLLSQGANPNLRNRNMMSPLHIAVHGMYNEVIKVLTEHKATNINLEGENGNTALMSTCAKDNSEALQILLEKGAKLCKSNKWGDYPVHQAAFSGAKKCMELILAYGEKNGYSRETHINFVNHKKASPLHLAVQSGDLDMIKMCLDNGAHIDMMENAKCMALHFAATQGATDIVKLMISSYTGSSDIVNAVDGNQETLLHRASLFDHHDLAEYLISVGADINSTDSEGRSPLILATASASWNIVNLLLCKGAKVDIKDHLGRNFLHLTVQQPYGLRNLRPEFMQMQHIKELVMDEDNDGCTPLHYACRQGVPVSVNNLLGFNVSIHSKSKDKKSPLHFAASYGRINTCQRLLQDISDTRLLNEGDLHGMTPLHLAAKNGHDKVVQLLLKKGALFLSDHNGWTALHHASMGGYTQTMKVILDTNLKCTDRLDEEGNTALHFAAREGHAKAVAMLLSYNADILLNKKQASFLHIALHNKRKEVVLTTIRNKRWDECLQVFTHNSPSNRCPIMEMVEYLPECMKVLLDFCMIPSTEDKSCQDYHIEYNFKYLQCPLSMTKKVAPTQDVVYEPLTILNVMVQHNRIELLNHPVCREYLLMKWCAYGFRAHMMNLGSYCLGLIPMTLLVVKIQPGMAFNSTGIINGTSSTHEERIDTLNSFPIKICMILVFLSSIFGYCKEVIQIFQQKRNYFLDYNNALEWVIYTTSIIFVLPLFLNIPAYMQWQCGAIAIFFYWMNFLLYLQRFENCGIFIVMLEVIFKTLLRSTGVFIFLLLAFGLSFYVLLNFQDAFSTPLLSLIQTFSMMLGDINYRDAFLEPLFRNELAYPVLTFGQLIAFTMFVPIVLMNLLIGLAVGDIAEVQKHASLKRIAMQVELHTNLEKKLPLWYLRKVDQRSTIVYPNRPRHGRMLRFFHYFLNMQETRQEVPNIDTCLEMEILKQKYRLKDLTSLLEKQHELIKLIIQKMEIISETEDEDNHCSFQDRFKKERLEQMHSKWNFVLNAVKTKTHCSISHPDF", "experiment": "Whole-cell recording of AITC-activated TRPA1 in HEK 293T cells", "assay_type": "cell-based", "excerpt": "as §1, §2"}},
  "data": [
    {"smiles": "CCCCOc1ccc(C(=O)CCN2CCCCC2)cc1", "note": "[dyclonine]", "values": [
      {"measurement": "IC50", "setting": "[1]", "result": "30.8 ± 2.2", "unit": "µM"},
      {"measurement": "Hill coefficient nH", "setting": "[2]", "result": "1.3 ± 0.15"},
      {"measurement": "reduction in current amplitude", "setting": "[2]; 10 μM dyclonine, AITC-activated", "result": "5% ± 1%"}
    ]}
  ]
}
